In publication PMC9274761, “Effects of Structurally Different HDAC Inhibitors against Trypanosoma cruzi, Leishmania, and Schistosoma mansoni” (ACS Infectious Diseases, 2022):

Assays:
HDAC1 = HDAC1 (Homo sapiens, UniProt Q13547); assay: HDAC1 protease-coupled fluorescence (AMC) inhibition assay; type: biochemical; details: hr enzyme, 10-dose, 3-fold dilution from 50 μM (3: from 300 μM); read-out: IC50 against HDAC1
Source text: (§1) The new hydroxamates 2 and 6 were screened and profiled via a protease-coupled assay in which the quantification of HDAC enzyme activity is based on the formation of a free fluorescent group, the 7-amino-4-methyl coumarin (AMC).[42] […] After deacetylation by HDACs, the de(trifluoro)acetylated AMC–peptides were sensitive toward lysine peptidase and free fluorogenic AMC was generated and quantified.[42]
(§2) To gain insights into its inhibition profile for human HDACs, we tested 3 against hrHDACs 1–6 and 8 following the above procedure (Table 1).
(§3) Individual IC50 values for each HDAC isozyme were measured with the homogeneous fluorescence release HDAC assay.[42]

HDAC2 = HDAC2 (Homo sapiens, UniProt Q92769); assay: HDAC2 protease-coupled fluorescence (AMC) inhibition assay; type: biochemical; details: hr enzyme, 10-dose, 3-fold dilution from 50 μM (3: from 300 μM); read-out: IC50 against HDAC2
Source text: as §1, §2, §3

HDAC3 = HDAC3 (Homo sapiens, UniProt O15379); assay: HDAC3 protease-coupled fluorescence (AMC) inhibition assay; type: biochemical; details: hr enzyme, 10-dose, 3-fold dilution from 50 μM (3: from 300 μM); read-out: IC50 against HDAC3
Source text: as §1, §2, §3

HDAC4 = HDAC4 (Homo sapiens, UniProt P56524); assay: HDAC4 protease-coupled fluorescence (AMC) inhibition assay; type: biochemical; details: hr enzyme, class IIa substrate Boc-Lys(trifluoroacetyl)-AMC; read-out: IC50 against HDAC4
Source text: as §1, §2, §3

HDAC5 = HDAC5 (Homo sapiens, UniProt Q9UQL6); assay: HDAC5 protease-coupled fluorescence (AMC) inhibition assay; type: biochemical; details: hr enzyme, class IIa substrate Boc-Lys(trifluoroacetyl)-AMC; read-out: IC50 against HDAC5
Source text: as §1, §2, §3

HDAC6 = target: T1, HDAC6 (Homo sapiens, UniProt Q9UBN7); assay: HDAC6 protease-coupled fluorescence (AMC) inhibition assay; type: biochemical; details: hr enzyme, 10-dose, 3-fold dilution from 50 μM (3: from 300 μM); read-out: IC50 against HDAC6
T1 sequence (Q9UBN7 1-1215): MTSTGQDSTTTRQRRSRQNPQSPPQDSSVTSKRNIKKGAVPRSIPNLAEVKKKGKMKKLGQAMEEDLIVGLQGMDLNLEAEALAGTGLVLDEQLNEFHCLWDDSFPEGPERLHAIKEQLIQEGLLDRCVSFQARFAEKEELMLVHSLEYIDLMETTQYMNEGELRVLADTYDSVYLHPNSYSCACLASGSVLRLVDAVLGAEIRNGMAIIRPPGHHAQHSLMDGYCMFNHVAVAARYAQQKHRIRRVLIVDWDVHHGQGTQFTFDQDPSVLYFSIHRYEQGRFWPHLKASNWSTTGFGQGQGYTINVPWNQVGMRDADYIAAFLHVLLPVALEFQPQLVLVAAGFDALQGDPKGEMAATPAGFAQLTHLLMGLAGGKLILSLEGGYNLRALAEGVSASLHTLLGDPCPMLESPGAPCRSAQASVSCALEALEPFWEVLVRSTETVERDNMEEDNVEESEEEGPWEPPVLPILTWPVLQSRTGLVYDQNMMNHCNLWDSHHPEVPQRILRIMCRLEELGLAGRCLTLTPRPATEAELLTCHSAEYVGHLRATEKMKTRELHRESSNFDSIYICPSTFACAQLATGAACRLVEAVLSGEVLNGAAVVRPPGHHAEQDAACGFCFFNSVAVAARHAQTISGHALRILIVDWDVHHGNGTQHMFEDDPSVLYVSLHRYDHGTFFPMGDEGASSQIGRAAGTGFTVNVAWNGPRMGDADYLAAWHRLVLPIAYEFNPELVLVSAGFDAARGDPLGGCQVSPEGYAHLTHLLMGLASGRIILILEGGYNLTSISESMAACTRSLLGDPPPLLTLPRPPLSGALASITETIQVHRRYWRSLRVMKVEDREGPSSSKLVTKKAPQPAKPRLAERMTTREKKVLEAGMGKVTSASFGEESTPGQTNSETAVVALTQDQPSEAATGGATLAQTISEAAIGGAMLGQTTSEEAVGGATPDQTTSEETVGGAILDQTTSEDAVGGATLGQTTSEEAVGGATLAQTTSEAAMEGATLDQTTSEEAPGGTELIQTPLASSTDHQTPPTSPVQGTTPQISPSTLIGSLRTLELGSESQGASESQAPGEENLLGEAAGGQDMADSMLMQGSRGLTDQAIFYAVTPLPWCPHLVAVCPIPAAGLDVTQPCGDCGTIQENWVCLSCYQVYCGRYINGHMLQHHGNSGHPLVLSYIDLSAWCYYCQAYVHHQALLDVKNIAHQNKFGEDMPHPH
Source text: as §1, §2, §3

HDAC8 = target: T2, HDAC8 (Homo sapiens, UniProt Q9BY41); assay: HDAC8 protease-coupled fluorescence (AMC) inhibition assay; type: biochemical; details: hr enzyme, substrate RHK(Ac)K(Ac)AMC; read-out: IC50 against HDAC8
T2 sequence (Q9BY41 1-377): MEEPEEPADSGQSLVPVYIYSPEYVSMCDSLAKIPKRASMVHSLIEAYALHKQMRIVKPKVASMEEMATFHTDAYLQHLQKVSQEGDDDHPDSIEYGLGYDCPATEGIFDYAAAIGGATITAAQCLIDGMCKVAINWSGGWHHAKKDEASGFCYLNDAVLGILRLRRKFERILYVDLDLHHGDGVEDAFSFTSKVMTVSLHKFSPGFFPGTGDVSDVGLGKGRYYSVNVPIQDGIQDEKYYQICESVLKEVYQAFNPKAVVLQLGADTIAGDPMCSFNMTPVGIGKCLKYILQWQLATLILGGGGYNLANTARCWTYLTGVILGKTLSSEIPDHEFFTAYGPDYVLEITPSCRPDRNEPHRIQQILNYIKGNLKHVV
Source text: as §1, §2, §3

[1] = system: T. cruzi amastigotes and trypomastigotes; assay: T. cruzi infection assay in L929 cells (beta-galactosidase Tulahuen strain); type: cell-based, Trypanosoma cruzi
[2] = system: L. amazonensis promastigotes; assay: Resazurin reduction assay, L. amazonensis promastigotes; type: cell-based; details: Leishmania amazonensis; 20 μM; read-out: percentage of inhibition, L. amazonensis promastigotes
[3] = system: L. donovani promastigotes; assay: Resazurin reduction assay, L. donovani promastigotes; type: cell-based; details: Leishmania donovani, read-out: percentage of inhibition, L. donovani promastigotes
[4] = system: L. donovani axenic amastigotes; assay: Resazurin reduction assay, L. donovani axenic amastigotes; type: cell-based; details: Leishmania donovani, read-out: percentage of inhibition, L. donovani axenic amastigotes
[5] = system: newly transformed schistosomula (NTS); assay: Phenotypic screening on newly transformed schistosomula (NTS); type: cell-based, Schistosoma mansoni
in vitro = details: mouse, noninfected L929 fibroblast cells
Leishmania = system: Leishmania; parameters: method as in PMID 28107750; details: 10 and 20 μM; cited from earlier work
[6] = system: S. mansoni schistosomula, adult worm pairs, and egg production; parameters: method as in PMID 28107750; details: 10 μM; cited from earlier work

Chain of HDAC2 (Q92769 whole entry): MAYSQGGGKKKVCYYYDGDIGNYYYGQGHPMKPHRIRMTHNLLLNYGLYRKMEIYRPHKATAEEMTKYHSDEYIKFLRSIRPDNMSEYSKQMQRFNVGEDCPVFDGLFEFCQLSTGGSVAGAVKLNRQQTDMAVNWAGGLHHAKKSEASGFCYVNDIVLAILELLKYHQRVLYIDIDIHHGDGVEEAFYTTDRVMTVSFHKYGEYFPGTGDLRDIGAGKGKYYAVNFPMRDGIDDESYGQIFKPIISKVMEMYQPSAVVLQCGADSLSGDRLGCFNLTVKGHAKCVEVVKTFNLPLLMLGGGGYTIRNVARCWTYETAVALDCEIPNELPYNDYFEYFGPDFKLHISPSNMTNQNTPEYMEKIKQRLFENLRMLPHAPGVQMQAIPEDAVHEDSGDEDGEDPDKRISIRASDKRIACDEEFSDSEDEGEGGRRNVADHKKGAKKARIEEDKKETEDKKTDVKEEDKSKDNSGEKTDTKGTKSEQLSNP
Chain of HDAC3 (O15379 whole entry): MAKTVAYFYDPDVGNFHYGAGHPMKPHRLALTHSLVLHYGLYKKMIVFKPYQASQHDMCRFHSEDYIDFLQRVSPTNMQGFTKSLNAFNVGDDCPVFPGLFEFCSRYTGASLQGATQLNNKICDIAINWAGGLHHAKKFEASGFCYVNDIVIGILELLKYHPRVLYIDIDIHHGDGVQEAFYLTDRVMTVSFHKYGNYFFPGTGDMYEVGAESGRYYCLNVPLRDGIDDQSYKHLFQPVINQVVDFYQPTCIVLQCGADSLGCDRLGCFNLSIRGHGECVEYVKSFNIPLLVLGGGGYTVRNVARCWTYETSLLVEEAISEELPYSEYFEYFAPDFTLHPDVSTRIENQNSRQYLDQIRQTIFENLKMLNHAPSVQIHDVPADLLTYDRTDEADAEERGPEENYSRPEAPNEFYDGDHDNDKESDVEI
Chain of HDAC3 (Q9Y618 395-489 partner limits assumed): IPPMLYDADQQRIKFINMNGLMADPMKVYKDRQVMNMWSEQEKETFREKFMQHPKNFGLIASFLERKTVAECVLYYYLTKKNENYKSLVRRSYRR
Chain of HDAC5 (Q9UQL6 whole entry): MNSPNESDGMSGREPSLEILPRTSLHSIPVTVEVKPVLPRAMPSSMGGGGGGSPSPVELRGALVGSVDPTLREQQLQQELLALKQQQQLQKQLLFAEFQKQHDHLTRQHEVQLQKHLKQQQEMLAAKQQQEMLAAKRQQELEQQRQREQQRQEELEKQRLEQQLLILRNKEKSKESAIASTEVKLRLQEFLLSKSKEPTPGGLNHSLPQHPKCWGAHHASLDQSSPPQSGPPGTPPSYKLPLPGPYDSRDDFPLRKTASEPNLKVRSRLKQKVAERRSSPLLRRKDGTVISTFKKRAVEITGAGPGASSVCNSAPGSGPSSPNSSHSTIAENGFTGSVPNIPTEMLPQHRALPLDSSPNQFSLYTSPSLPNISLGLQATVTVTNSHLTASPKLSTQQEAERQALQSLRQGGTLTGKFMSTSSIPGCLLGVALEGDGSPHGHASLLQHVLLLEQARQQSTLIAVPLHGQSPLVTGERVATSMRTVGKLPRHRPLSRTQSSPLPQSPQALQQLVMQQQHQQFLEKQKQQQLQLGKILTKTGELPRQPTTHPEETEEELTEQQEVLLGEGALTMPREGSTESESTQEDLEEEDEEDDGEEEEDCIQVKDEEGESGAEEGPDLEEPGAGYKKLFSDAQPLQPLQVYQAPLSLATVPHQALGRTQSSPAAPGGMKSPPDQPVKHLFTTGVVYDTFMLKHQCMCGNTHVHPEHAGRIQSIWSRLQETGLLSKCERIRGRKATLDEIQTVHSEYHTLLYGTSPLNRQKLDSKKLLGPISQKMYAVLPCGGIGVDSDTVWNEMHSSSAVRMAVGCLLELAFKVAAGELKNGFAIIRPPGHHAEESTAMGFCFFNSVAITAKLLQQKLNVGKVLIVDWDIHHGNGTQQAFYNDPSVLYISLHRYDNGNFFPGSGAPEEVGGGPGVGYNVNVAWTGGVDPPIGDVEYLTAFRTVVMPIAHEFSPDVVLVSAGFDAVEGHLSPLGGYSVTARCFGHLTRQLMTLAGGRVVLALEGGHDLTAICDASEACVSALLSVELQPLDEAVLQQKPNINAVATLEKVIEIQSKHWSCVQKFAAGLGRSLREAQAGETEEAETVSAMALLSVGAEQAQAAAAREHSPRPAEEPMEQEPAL
Chain of HDAC1 (Q13547 whole entry): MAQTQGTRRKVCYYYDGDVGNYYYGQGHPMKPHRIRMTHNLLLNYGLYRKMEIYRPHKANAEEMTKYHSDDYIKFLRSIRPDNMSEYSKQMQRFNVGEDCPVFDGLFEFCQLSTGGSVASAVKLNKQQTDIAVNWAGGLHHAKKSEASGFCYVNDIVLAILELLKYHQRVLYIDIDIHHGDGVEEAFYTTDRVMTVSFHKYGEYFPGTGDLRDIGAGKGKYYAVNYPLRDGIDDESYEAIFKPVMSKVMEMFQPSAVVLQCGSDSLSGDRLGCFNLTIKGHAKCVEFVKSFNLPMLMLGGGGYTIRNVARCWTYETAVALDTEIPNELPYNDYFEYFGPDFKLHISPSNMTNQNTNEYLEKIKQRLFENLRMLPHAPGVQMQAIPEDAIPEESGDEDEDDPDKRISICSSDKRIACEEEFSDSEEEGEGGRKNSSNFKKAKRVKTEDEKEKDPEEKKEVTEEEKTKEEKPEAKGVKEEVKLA
Chain of HDAC4 (P56524 whole entry): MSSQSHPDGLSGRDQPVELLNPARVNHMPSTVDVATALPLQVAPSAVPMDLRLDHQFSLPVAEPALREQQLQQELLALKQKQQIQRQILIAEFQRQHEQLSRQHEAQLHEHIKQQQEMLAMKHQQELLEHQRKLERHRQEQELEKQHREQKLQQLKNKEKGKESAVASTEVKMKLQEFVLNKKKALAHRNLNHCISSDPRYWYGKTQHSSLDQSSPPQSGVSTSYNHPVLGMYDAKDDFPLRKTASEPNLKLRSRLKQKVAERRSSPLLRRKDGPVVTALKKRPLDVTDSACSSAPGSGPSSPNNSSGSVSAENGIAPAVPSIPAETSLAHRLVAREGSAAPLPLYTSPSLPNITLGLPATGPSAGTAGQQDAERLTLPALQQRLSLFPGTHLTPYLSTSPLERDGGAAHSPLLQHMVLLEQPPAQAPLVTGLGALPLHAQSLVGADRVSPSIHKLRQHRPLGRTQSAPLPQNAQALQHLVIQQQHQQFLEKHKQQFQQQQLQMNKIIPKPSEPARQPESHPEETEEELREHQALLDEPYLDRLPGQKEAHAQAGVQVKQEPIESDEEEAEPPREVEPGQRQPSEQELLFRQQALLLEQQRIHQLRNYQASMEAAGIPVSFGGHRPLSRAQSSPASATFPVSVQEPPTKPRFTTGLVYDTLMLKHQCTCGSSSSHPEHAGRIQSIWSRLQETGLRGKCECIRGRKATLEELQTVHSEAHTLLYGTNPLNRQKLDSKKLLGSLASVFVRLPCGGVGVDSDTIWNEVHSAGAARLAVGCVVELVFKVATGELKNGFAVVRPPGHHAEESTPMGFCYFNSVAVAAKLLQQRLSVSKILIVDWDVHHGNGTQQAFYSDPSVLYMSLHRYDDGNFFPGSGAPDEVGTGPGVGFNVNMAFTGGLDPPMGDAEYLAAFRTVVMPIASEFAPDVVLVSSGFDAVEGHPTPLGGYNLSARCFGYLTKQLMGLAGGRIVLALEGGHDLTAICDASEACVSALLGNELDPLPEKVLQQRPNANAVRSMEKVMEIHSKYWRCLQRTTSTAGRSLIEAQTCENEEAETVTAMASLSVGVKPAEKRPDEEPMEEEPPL

**Q.** Which IC50 (HDAC1) does the source give for `Cn1c(/C=C/C(=O)NO)ccc1/C=C/C(=O)c1cccc(Cl)c1` [Compound 3] here?
**A.** > 300 µM

**Q.** And the IC50 (HDAC2)?
**A.** 257 µM

**Q.** And the IC50 (HDAC3)?
**A.** > 300 µM

**Q.** What about the IC50 (HDAC4) of the same compound?
**A.** 132 µM

**Q.** What about the IC50 (HDAC5) of the same compound?
**A.** 131 µM

**Q.** And the IC50 (HDAC6)?
**A.** 6.1 µM

**Q.** What about the IC50 (HDAC8) of the same compound?
**A.** 2 µM

**Q.** What about the “percentage of T. cruzi growth inhibition” value ([1]; 80 μM, infected L929 cells, 96 h, toxic = L929 death) of the same compound?
**A.** toxic

**Q.** What about the “percentage of T. cruzi growth inhibition” value ([1]; 160 μM, infected L929 cells, 96 h, toxic = L929 death) of the same compound?
**A.** toxic

**Q.** And the “selectivity index (SI), CC50/EC50” value ([1]; L929 CC50 / T. cruzi EC50)?
**A.** 5.7

**Q.** What about the EC50 ([1]; Trypanosoma cruzi, L929, 96 h, infected L929 cells, 96 h, mean ± SD, read-out: EC50, growth of T. cruzi amastigotes and trypomastigotes) of the same compound?
**A.** 7 ± 0.2 µM

**Q.** And the inhibition at 1.25 µM ([1]; Trypanosoma cruzi, 1.25 μM, infected L929 cells, 96 h, read-out: percentage of T. cruzi growth inhibition)?
**A.** 0%

**Q.** What about the inhibition at 2.5 µM ([1]; Trypanosoma cruzi, 2.5 μM, infected L929 cells, 96 h, toxic = L929 death, read-out: percentage of T. cruzi growth inhibition) of the same compound?
**A.** 2%

**Q.** What about the inhibition at 5 µM ([1]; Trypanosoma cruzi, 5 μM, infected L929 cells, 96 h, toxic = L929 death, read-out: percentage of T. cruzi growth inhibition) of the same compound?
**A.** 39%

**Q.** What about the inhibition at 10 µM ([1]; Trypanosoma cruzi, 10 μM, infected L929 cells, 96 h, toxic = L929 death, read-out: percentage of T. cruzi growth inhibition) of the same compound?
**A.** 67%

**Q.** And the inhibition at 20 µM ([1]; Trypanosoma cruzi, 20 μM, infected L929 cells, 96 h, toxic = L929 death, read-out: percentage of T. cruzi growth inhibition)?
**A.** 87%

**Q.** And the inhibition at 40 µM ([1]; Trypanosoma cruzi, 40 μM, infected L929 cells, 96 h, toxic = L929 death, read-out: percentage of T. cruzi growth inhibition)?
**A.** 90%

**Q.** What about the inhibition at 20 µM [2] of the same compound?
**A.** 9.1 ± 6.3%

**Q.** What about the inhibition at 0.8 µM ([3]; 0.8 μM) of the same compound?
**A.** 3.8 ± 3.4%

**Q.** And the inhibition at 4 µM ([3]; 4 μM)?
**A.** 1.7 ± 1.5%

**Q.** What about the inhibition at 20 µM ([3]; 20 μM) of the same compound?
**A.** 6.8 ± 1.8%

**Q.** And the inhibition at 0.8 µM ([4]; 0.8 μM)?
**A.** 4.9 ± 4.9%

**Q.** What about the inhibition at 4 µM ([4]; 4 μM) of the same compound?
**A.** 50.8 ± 2.4%

**Q.** What about the inhibition at 20 µM ([4]; 20 μM) of the same compound?
**A.** 74.9 ± 1.3%

**Q.** And the “percentage of NTS activity, 72 h” value ([5]; 10 μM)?
**A.** 22.3 ± 2.0%

**Q.** What about the “percentage of NTS activity, 72 h” value ([5]; 20 μM) of the same compound?
**A.** 23.5 ± 0.9%

**Q.** What about the IC50 ([5]; Schistosoma mansoni, 72 h, read-out: IC50, viability of NTS) of the same compound?
**A.** > 20 µM

**Q.** What about the CC50 at 96 h (in vitro) of the same compound?
**A.** 40 µM

**Q.** What does the source list for `O=C(CCCCCCC(=O)Nc1ccccc1)NO` [SAHA]?
**A.** effect in Leishmania (Leishmania): ineffective and/or exhibited too high toxicity for macrophages; effects in schistosomula, adult worm pairs, and egg production [6]: only moderate effects

**Q.** What does the source list for `O=C(/C=C/c1cccc(S(=O)(=O)Nc2ccccc2)c1)NO` [belinostat]?
**A.** effect in Leishmania (Leishmania): ineffective and/or exhibited too high toxicity for macrophages; effects in schistosomula, adult worm pairs, and egg production [6]: only moderate effects

**Q.** Which results are given for `Cc1[nH]c2ccccc2c1CCNCc1ccc(/C=C/C(=O)NO)cc1` [panobinostat]?
**A.** effect in Leishmania (Leishmania): ineffective and/or exhibited too high toxicity for macrophages; effects in schistosomula, adult worm pairs, and egg production [6]: only moderate effects

**Q.** Which “effect in Leishmania” value (Leishmania) does the source give for `C/C=C1\NC(=O)[C@H]2CSSCC/C=C/[C@H](CC(=O)N[C@H](C(C)C)C(=O)N2)OC(=O)[C@H](C(C)C)NC1=O` [romidepsin] here?
**A.** ineffective and/or exhibited too high toxicity for macrophages

**Q.** And the “effects in schistosomula, adult worm pairs, and egg production” value [6]?
**A.** only moderate effects
